This is an account of results in ChEMBL document CHEMBL1129412, “Computation of brain-blood partitioning of organic solutes via free energy calculations” (J Med Chem, 1996).

The nature of data set [1]: logBB, log(C brain/C blood).
Data set [2] is described as follows: logBB, log(C brain / C blood).
The nature of data set [3]: The ratio of brain-blood partitioning, (C brain / C blood). The format is ADME, tissue-based.

For the molecule `O=C(NCCCOc1cccc(CN2CCCCC2)c1)c1ccccc1`, the Kp in data set [1] (blood) was 0.575.

`Cc1ccc(Cc2c[nH]c(NCCSCc3ccc(CN(C)C)o3)nc2=O)cn1` [LUPITIDINE]: in data set [1] (brain / blood), the Kp was 0.0871.

In data set [2] (blood), `FC(F)OC(F)(F)C(F)Cl` (stereo not drawn) gave a Kp of 1.74.

On to `COc1ccc(CN(CCN(C)C)c2ccccn2)cc1` [PYRILAMINE], for which the Kp in data set [1] (blood) was 3.09.

As for `c1cc(CN2CCCCC2)cc(OCCCNc2nccs2)c1`, the Kp in data set [1] (blood) was 2.75.

In data set [2] (blood), `c1ccccc1` [BENZENE] gave a Kp of 2.34.

Take `CCCCCC` [HEXANE]: the concentration ratio (Kp) in data set [2] (blood) is 6.31.

`CN(C)CCCN1c2ccccc2CCc2ccccc21` [IMIPRAMINE]: the Kp in data set [1] (blood) is 6.76.

In turn, `CC1CCCC1` [METHYLCYCLOPENTANE] gave a Kp in data set [2] (blood) of 8.51.

In the case of `O=[N+]([O-])c1c(Cc2ccccc2)c[nH]c1NCCSCc1ccccn1`, the Kp in data set [1] (brain / blood) is 0.759.

As for `CCCCCCC` [HEPTANE], in data set [2] (blood), the Kp is 6.46.

For `CCCC(C)C`, in data set [2] (brain / blood), the Kp was 9.33.

`CC(C)O` [ISOPROPYL ALCOHOL] had a Kp in data set [2] (blood) of 0.708.

As to `CCC(C)(C)C`, the Kp in data set [2] (brain / blood) was 11.

In the case of `CN(C)Cc1ccc(CSCCNc2ncc(Cc3ccc4ccccc4c3)c(O)n2)o1`, the Kp in data set [1] (brain / blood) was 0.0501.

`CN(C)Cc1ccc(CSCCNc2[nH]ccc2[N+](=O)[O-])o1` gave a Kp in data set [1] (brain / blood) of 0.0759.

Regarding `CN1Cc2c(-c3noc(C(C)(C)O)n3)ncn2-c2cccc(Cl)c2C1=O`, the Kp in data set [2] (brain / blood) is 0.0457; in data set [3], 0.046.

`CCO` [ALCOHOL] showed a Kp in data set [2] (blood) of 0.692.

The molecule `C/N=C(\NC#N)Nc1cccc(-c2csc(N=C(N)N)n2)c1` had a concentration ratio (Kp) in data set [1] (brain / blood) of 0.0288.

In data set [1] (blood), `CC(=O)Nc1cccc(-c2csc(N=C(N)N)n2)c1` showed a Kp of 0.0269.

`C=COCC(F)(F)F` [FLUROXENE] had a Kp in data set [2] (blood) of 1.35.

In turn, `c1ccc(NCCCOc2cccc(CN3CCCCC3)c2)nc1` showed a Kp in data set [1] (blood) of 4.9.

In data set [2] (blood), `FC(Br)C(F)(F)F` (stereo not drawn) gave a Kp of 1.86.

As to `CN(C)Cc1ccc(-c2cccc(Nc3[nH]ccc3[N+](=O)[O-])c2)o1`, the Kp in data set [2] (brain / blood) was 0.537.

Take `CN/C(=N/CCSCc1nc[nH]c1C)NC#N` [CIMETIDINE]: the concentration ratio (Kp) in data set [1] (blood) was 0.038.

For `CCC(C)=O` [BUTANONE], the Kp in data set [2] (blood) is 0.832.

`O=[N+]([O-])c1cc[nH]c1NCCSCc1ncccc1Br` had a Kp in data set [1] (brain / blood) of 0.214.

In data set [2] (blood), `ClC=C(Cl)Cl` [TRICHLOROETHYLENE] gave a concentration ratio (Kp) of 2.19.

The molecule `CC(C)CO` [ISOBUTANOL] gave a Kp in data set [2] (brain / blood) of 0.676.

On to `CN(C)CCC=C1c2ccccc2CCc2ccccc21` [AMITRIPTYLINE], for which, in data set [3], the Kp turned out to be 9.6.

The molecule `FC(F)(F)CCl` gave a Kp in data set [2] (brain / blood) of 1.2.

With `C` [METHANE], in data set [2] (brain / blood), the Kp is 1.1.

As to `CN(C)c1cc(-c2n[nH]c(N)n2)ccn1`, the Kp in data set [1] (brain / blood) was 0.0676.

Turning to `CCC(C)CC`, the Kp in data set [2] (blood) was 10.2.

`CC(Cl)(Cl)Cl` [TRICHLOROETHANE] showed a Kp in data set [2] (blood) of 2.51.

In data set [2] (blood), `FC(F)(F)C(Cl)Br` (stereo not drawn) [HALOTHANE] had a Kp of 2.24.

For the molecule `CC(C)c1nc(-c2ncn3c2CN(C)C(=O)c2c(Cl)cccc2-3)no1`, the Kp in data set [2] (brain / blood) was 0.501; in data set [3] it was 0.5.

Molecule `FC(F)OC(Cl)C(F)(F)F` (stereo not drawn) [ISOFLURANE] showed a Kp in data set [2] (blood) of 2.63.

In turn, `Cc1csc(N=C(N)N)n1` had a Kp in data set [1] (blood) of 0.912.

On to `N=C(N)Nc1nc(-c2cccc(N)c2)cs1`, for which the Kp in data set [1] (brain / blood) was 0.0708.

`Cc1ccccc1` [TOLUENE] had a Kp in data set [2] (blood) of 2.34.

In data set [1] (blood), `CC/N=C(\NC#N)NCCSCc1ncccc1Br` showed a Kp of 0.00708.

Molecule `CCCCC` [PENTANE] gave a Kp in data set [2] (brain / blood) of 5.75.

`CN1Cc2c(-c3noc(C(C)(O)CO)n3)ncn2-c2cccc(Cl)c2C1=O` (stereo not drawn): the Kp in data set [2] (blood) is 0.0151; in data set [3], 0.015.

`N#N` [NITROGEN] showed a partition ratio (Kp) in data set [2] (brain / blood) of 1.07.

As to `NC(=O)N1c2ccccc2C=Cc2ccccc21` [CARBAMAZEPINE], the Kp in data set [2] (blood) and in data set [3] was 1 in each case.

Consider `CCCC(C)CC` (stereo not drawn), for which the Kp in data set [2] (blood) is 7.94.

`CC(=O)NCCCOc1cccc(CN2CCCCC2)c1` gave a Kp in data set [1] (blood) of 0.347.

In turn, `CN(C)Cc1ccnc(-c2cccc(Nc3[nH]ccc3[N+](=O)[O-])c2)c1` showed a Kp in data set [1] (blood) of 0.525.

Molecule `COc1cccnc1CCCCNc1ncc(Cc2ccc(C)nc2)c(=O)[nH]1` [ICOTIDINE] had a Kp in data set [1] (blood) of 0.01.

For `NC(=O)N1c2ccccc2C2OC2c2ccccc21` (stereo not drawn) [CARBAMAZEPINE EPOXIDE], the figures for the Kp in data set [2] (brain / blood) and in data set [3] were 0.457 and 0.46, respectively.

In the case of `NC(N)=Nc1nc(-c2ccccc2)cs1`, the Kp in data set [1] (brain / blood) was 0.661.

With `CN(C)Cc1ccc(CSCCNc2[nH]cc(Cc3ccccc3)c2[N+](=O)[O-])o1`, in data set [1] (blood), the Kp is 0.186.
